{"source": "patent US11583525B2", "about": "“Geranylgeranyltransferase I inhibitor for treatment of a PTEN defective cancer” (H. LEE MOFFITT CANCER CENTER AND RESEARCH INSTITUTE, INC., priority 2017, dated 2023)", "format_in_all_cases": "cell-based, human", "key": {"FBXL2 and IP3R3": {"system": "FBXL2 and IP3R3", "test": "FBXL2-IP3R3 co-immunoprecipitation after ATP stimulation", "settings": "ATP for 30 min; particularly upon proteasome inhibition", "method": "FIGS. 8A, 8B, 8C, 8D, 8E, 8F, 8G, 8H, 8I, and 8J show Mapping of the FBXL2-binding domain in IP3R3, and evidence that the N-terminal suppressor domain inhibits the IP3R3-FBXL2 interaction. […] Binding of IP3R3 to FBXL2 is indicated with the symbol (+). […] Whole-cell lysates (WCL) were immunoprecipitated (IP) with anti-Flag resin and proteins were immunoblotted as indicated. This experiment was performed twice. […] Sixteen hours after transfection, cells were incubated with MG132 for 3 h before stimulation with ATP for 30 min Whole-cell lysates were immunoprecipitated (IP) with an anti-HA resin and proteins were immunoblotted as indicated. This experiment was performed twice. […] Cells were subsequently treated with or without ATP for 30 min Whole-cell lysates were immunoprecipitated (IP) with an anti-Flag resin and proteins were immunoblotted as indicated. […] P values were calculated by one-way ANOVA and multiple-comparisons test. Error bars indicate s.e.m. […] It has been shown that removal of the N-terminal suppressor domain (amino acids 1-226) increases the binding of IP3 to the IP3 binding core domain (amino acids 227-579), and IP3 binding evokes conformational changes that open the suppressor domain29-32. These conformational changes may allow FBXL2 to access the degron of IP3R3 (that is, the amino acid region required for binding to FBXL2). […]"}, "IP3R3 [1]": {"system": "IP3R3", "test": "IP3R3 degradation in serum-starved and exponentially growing NHFs treated with ATP", "settings": "NHFs cultured in presence or absence of serum"}, "IP3R3 [2]": {"system": "IP3R3", "test": "Serum-mediated degradation of IP3R3 in serum-starved, serum re-stimulated NHFs (immunoblotting)", "settings": "NHFs serum-starved 72 h, re-stimulated with serum; 10 μM MG132, 10 μM Eer1", "method": "24 h post-transfection, cells were treated with MG132 for 3 h before harvesting for immunoprecipitation and immunoblotting as indicated. WCL, whole-cell lysate from untransfected cells. […] After harvesting, cells were lysed, and cell membranes (CM) were isolated and immunoprecipitated with either a normal mouse IgG or an anti-Flag antibody. Subsequently, immunoprecipitates were analysed by immunoblotting as indicated. The results of these experiments (n=2) indicate that FBXL2 is incorporated into a complete SCF ligase that binds its substrate(s) at cellular membranes. […] After harvesting, cells were lysed and cytoplasmic (CYTO) and cell membrane (CM) fractions were isolated and analysed by immunoblotting as indicated. Actin and calnexin are used as markers for cytoplasmic and cell membrane fractions, respectively. This experiment was performed twice. […] 24 h post-transfection, where indicated, cells were treated with MG132 for 3 h before harvesting for immunoprecipitation and immunoblotting. Ned. CUL1, neddylated CUL1. […] The experiment was performed in the presence or absence of MG132 as indicated. Whole-cell lysates were immunoblotted as indicated. The asterisk indicates a non-specific band. This experiment was performed twice. […] P values were calculated by unpaired t-test. Error bars indicate s.e.m. […] Error bars indicate s.e.m. The values represent the ratios between FBXL2 and GAPDH mRNAs. […] Cells were subsequently stimulated with medium containing serum and harvested at the indicated times for immunoblotting. […] Error bars indicate s.e.m. […] Cells were subsequently stimulated with medium containing serum and harvested at the indicated time points for immunoblotting. […] Error bars indicate s.e.m. […] Exon 2 and exon 3 refer to the human FBXL2 gene in NC_000003.12 (GRCh38.p7 (Gene Bank ID: 3129728)). […]\nFIGS. 6A, 6B, 6C, 6D, 6E, 6F, 6G, and 6H that the degradation of IP3R3 is dependent on FBXL2 localization to cell membranes and on the segregase activity of p97. […] Samples were analysed by immunoblotting with the indicated antibodies. […]"}, "NHFs": {"system": "NHFs", "test": "H2O2-induced apoptosis in NHFs transfected with FBXL2 siRNA (automated nuclei count)", "settings": "pre-treated for 30 min with cyclosporin A (1 μM), H2O2 16 h", "method": "FIGS. 1A, 1B, 1C, 1D, 1E, 1F, 1G, and 1H show FBXL2-mediated degradation of IP3R3 controls Ca2+ flux and sensitivity to apoptosis. […] Left, two representative traces. Right, quantification of three independent experiments. P values were calculated by one-way ANOVA and multiple-comparisons test. Error bars indicate s.e.m. 1b, 1c, and 1d, Apoptosis evaluated after treatment with H2O2 using automated nuclei count analysis of twenty randomly chosen fields following a 16 h treatment (1b), immunoblot detection of cleaved PARP and cleaved caspase-3 following a 3 h treatment (1c), and automated analysis of cells with released cytochrome c (Cyt c) from 80 randomly chosen fields following a 3 h treatment (1d). […] P values were calculated by one-way ANOVA and multiple-comparisons test. […] Left, representative traces show concentrations of cytosolic Ca2+ measured with aequorin. Right, quantification of three independent experiments. P values were calculated by one-way ANOVA and multiple-comparisons test. […] Apoptosis shown in 1h was evaluated as in 1b, except that H2O2 treatment was for 5 h. Analysis of cytochrome c release shown in 1i was evaluated as in 1d. P values were calculated by unpaired t-test. […]\nDetection of cell death in cell systems. […] The mean fluorescence intensities and standard deviations of […] cytochrome c were evaluated in comparison to corresponding controls. […]"}}, "data": [{"molecule": "Nc1ncnc2c1ncn2[C@@H]1O[C@H](COP(=O)(O)OP(=O)(O)OP(=O)(O)O)[C@@H](O)[C@H]1O", "note": "[ATP]", "values": [{"measurement": "binding between FBXL2 and IP3R3", "setting": "FBXL2 and IP3R3", "value": "increased the binding between FBXL2 and IP3R3"}, {"measurement": "degradation of IP3R3", "setting": "IP3R3 [1]", "value": "promoted the degradation of IP3R3 in cells cultured in the presence, but not in the absence, of serum"}]}, {"molecule": "CC(=O)N[C@@H](CSC(=O)[C@]1([C@@H](O)C(C)C)NC(=O)[C@H](C)[C@@H]1O)C(=O)O", "note": "[lactacystin]", "values": [{"measurement": "IP3R3 levels / degradation after serum re-stimulation", "setting": "IP3R3 [2]", "value": "much less"}]}, {"molecule": "cyclosporin-A", "values": [{"measurement": "sensitization to H2O2 by FBXL2 silencing", "setting": "NHFs", "value": "abolished the sensitization to H2O2 by FBXL2 silencing"}]}, {"molecule": "CC1(C)C(N(O)C(=O)Nc2ccc(Cl)cc2)N(c2ccc(Cl)cc2)C(=O)N1CC(=O)N/N=C/C=C/c1ccc([N+](=O)[O-])o1", "note": "(centres unmarked) [Eer1, Eeyarestatin 1]", "values": [{"measurement": "IP3R3 levels / degradation after serum re-stimulation", "setting": "IP3R3 [2]", "value": "blocked IP3R3 degradation"}]}]}
